For 30 compounds, melting point results are on record in patent publication US8399462B2, “JNK modulators” (Roche Palo Alto LLC, priority 2006, dated 2013).

For `CN(C1CCC(Nc2nccc(-n3cc(S(N)(=O)=O)c4ccccc43)n2)CC1)S(C)(=O)=O` (stereo not drawn) [Compound 321, 1-{2-[4-(methanesulfonyl-methyl-amino)-cyclohexylamino]-pyrimdin-4-yl}-1H-indole-3-sulfonic acid amide], the melting point fell in the range of 246.6 to 248.2 °C. On to `N[C@H]1CC[C@H](Nc2nccc(-n3ccc4ccccc43)n2)CC1` [Compound 52, N-(4-indol-1-yl-pyrimidin-2-yl)-cyclo-hexane-1,4-diamine], for which the melting point is 270.1 to 273.3 °C. In the case of `CC(=O)N[C@H]1CC[C@H](Nc2nccc(-n3ncc4c(OC[C@@H]5COC(C)(C)O5)cccc43)n2)CC1` (stereo in doubt) [Compound 131, N-(4-{4-[4-(2,2-di-methyl[1,3]dioxolan-4-ylmethoxy)-indazol-1-yl]-pyrimidin-2-yl-amino}-cyclohexyl)-acetamide] it was 214.5 to 215.5 °C. Take `CS(=O)(=O)CCOCc1cccc2c1ccn2-c1ccnc(N[C@H]2CC[C@H](O)CC2)n1` [Compound 138, 4-{4-[4-(2-methane-sulfonyl-ethoxymethyl)-indol-1-yl]-pyrimidin-2-ylamino}-cyclohexanol]: the melting point fell in the range of 119.5 to 121 °C. Compound `CC(C)(CO)COc1cccc2c1cnn2-c1ccnc(N[C@H]2CC[C@H](C(=O)N3CCC(O)CC3)CC2)n1` [Compound 227, (4-{4-[4-(3-hydroxy-2,2-dimethylpropoxy)-indazol-1-yl]-pyrimidin-2-ylamino}-cyclohexyl)-(4-hydroxy-piperidin-1-yl)-methanone] gave a melting point of 213 to 214.5 °C. In turn, `C[C@H]1CC[C@H](Nc2nccc(-n3ncc4c([N+](=O)[O-])cccc43)n2)CC1` [Example 4, trans-(4-Methyl-cyclohexyl)-[4-(4-nitro-indazol-1-yl)-pyrimidin-2-yl]-amine] came in with a melting point of 253.9 to 254.8 °C. In the case of `CS(=O)(=O)CCCOc1cccc2c1cnn2-c1ccnc(N[C@H]2CC[C@H](C(=O)N3CC[C@H](O)C3)CC2)n1` (stereo in doubt) [Compound 217, (3-hydroxy-pyrrolidin-1-yl)-(4-{4-[4-(3-methane-sulfonyl-propoxy)-indazol-1-yl]-pyrimidin-2-ylamino}-cyclohexyl)-methanone] it was 175 to 176 °C; in that of `CS(=O)(=O)CCCOc1cccc2c1cnn2-c1ccnc(N[C@H]2CC[C@H](N3CCCS3(=O)=O)CC2)n1` [Compound 215, [4-(1,1-dioxo-isothiazolidin-2-yl)-cyclohexyl]-{4-[4-(3-methane-sulfonyl-propoxy)-indazol-1-yl]-pyrimidin-2-yl}-amine], 206 to 207 °C; in that of `CCCOc1cccc2c1cnn2-c1ccnc(N[C@H]2CC[C@H](NS(C)(=O)=O)CC2)n1` [Compound 142, N-{4-[4-(4-propoxy-indazol-1-yl)-pyrimidin-2-ylamino]-cyclohexyl}-methanesulfonamide], 253 to 254 °C. `CS(=O)(=O)N[C@H]1CC[C@H](Nc2nccc(-n3ccc4c(F)cccc43)n2)CC1` [Compound 134, N-{4-[4-(4-fluoro-indol-1-yl)-pyrimidin-2-ylamino]-cyclohexyl}-methane sulfonamide] came in with a melting point of 248.7 to 249.4 °C.

Take `CS(=O)(=O)CCCOc1cccc2c1ccn2-c1ccnc(N[C@H]2CC[C@H](C(=O)N3CCC(S(C)(=O)=O)CC3)CC2)n1` [Compound 297, (4-methanesulfonyl-piperidin-1-yl)-(4-{4-[4-(3-methanesulfonyl-propoxy)-indol-1-yl]-pyrimidin-2-ylamino}-cyclohexyl)-methanone]: the melting point was in the range of 215 to 219 °C. In the case of `CC(O)c1cccc2c1ccn2-c1ccnc(N[C@H]2CC[C@H](NS(C)(=O)=O)CC2)n1` (stereo partly drawn) [Compound 135, N-(4-{4-[4-(1-hydroxy-ethyl)-indol-1-yl]-pyrimidin-2-ylamino}-cyclohexyl)-methane-sulfonamide] it was 244.5 to 245.3 °C. In the case of `CS(=O)(=O)N[C@H]1CC[C@H](Nc2nccc(-n3ncc4c(OCCCS(N)(=O)=O)cccc43)n2)CC1` [Compound 228, 3-{1-[2-(4-methane-sulfonylamino-cyclo-hexylamino)-pyrimidin-4-yl]-1H-indazol-4-yloxy}-propane-1-sulfonic acid amide] it was 250 to 251 °C; in that of `CC(C)(O)[C@H]1CC[C@H](Nc2nccc(-n3ncc4c(OCCCNS(C)(=O)=O)cccc43)n2)CC1` [Compound 210, N-[3-(1-{2-[4-(2-hydroxyprop-2-yl)-cyclohexylamino]-pyrimidin-4-yl}-1H-indazol-4-yloxy)-propyl]-methane-sulfonamide], 171 to 172 °C; in that of `CS(=O)(=O)N[C@H]1CC[C@H](Nc2ncc(F)c(-n3ccc4ccccc43)n2)CC1` [Compound 115, N-[4-(5-fluoro-4-indol-1-yl-pyrimidin-2-ylamino)-cyclohexyl]-methanesulfonamide], 270 to 270.5 °C. In the case of `CC(C)(O)c1cccc2c1ccn2-c1ccnc(N[C@H]2CC[C@H](C(=O)NCCS(C)(=O)=O)CC2)n1` [Compound 107, 4-{4-[4-(1-hydroxy-1-methylethyl)-indol-1-yl]-pyrimidin-2-yl-amino}-cyclohexane-carboxylic acid (2-methanesulfonyl-ethyl)-amide] it was 208 to 210 °C; in that of `CCCCOc1cccc2c1cnn2-c1ccnc(N[C@H]2CC[C@H](N(C)S(C)(=O)=O)CC2)n1` [Compound 190, N-{4-[4-(4-butoxy-indazol-1-yl)-pyrimidin-2-ylamino]-cyclohexyl}-N-methyl-methanesulfonamide], 191 to 192 °C; in that of `CN(C)C1CCN(C(=O)[C@H]2CC[C@H](Nc3nccc(-n4cc(C(N)=O)c5ccccc54)n3)CC2)CC1` [Compound 295, 1-{2-[4-(4-dimethylamino-piperidine-1-carbonyl)-cyclohexylamino]-pyrimidin-4-yl}-1H-indole-3-carboxylic acid amide], 219 to 221 °C. `O=S(=O)(Cc1ccccc1)c1cccc2c1ccn2-c1ccnc(N[C@H]2CC[C@H](O)CC2)n1` [Example 14, trans-4-[4-(4-Phenylmethanesulfonylindol-1-yl)-pyrimidin-2-yl-amino]-cyclohexanol] yielded a melting point of 132.1 to 134.5 °C. In the case of `CS(=O)(=O)N[C@H]1CC[C@H](Nc2nccc(-n3ccc4c(C5(O)CCOCC5)cccc43)n2)CC1` [Compound 194, N-(4-{4-[4-(4-hydroxy-tetrahydropyran-4-yl)-indol-1-yl]-pyrimidin-2-ylamino}-cyclohexyl)-methanesulfonamide] it was 248.3 to 249 °C; in that of `CS(=O)(=O)CCCOc1cccc2c1ccn2-c1ccnc(N[C@H]2CC[C@H](CN)CC2)n1.Cl`, 292 to 293 °C.

`O=C([C@H]1CC[C@H](Nc2nccc(-n3ncc4c(OC[C@@H](O)CO)cccc43)n2)CC1)N1CCCC1` (stereo in doubt) [Compound 153, (4-{4-[4-(2,3-dihydroxy-propoxy)-indazol-1-yl]-pyrimidin-2ylamino}-cyclohexyl)-pyrrolidin-1-ylmethanone] registered a melting point of 166 to 167 °C. The figure for `OCc1ccc2cnn(-c3ccnc(N[C@H]4CC[C@H](O)CC4)n3)c2c1` [Example 20, trans-4-[4-(6-Hydroxymethylindazol-1-yl)-pyrimidin-2-ylamino]-cyclohexanol] is 216 to 217.7 °C; for `NS(=O)(=O)CCCOc1cccc2c1cnn2-c1ccnc(N[C@H]2CC[C@H](C(=O)N3CC[C@@H](O)C3)CC2)n1` (stereo in doubt) [Compound 253, 3-(1-{2-[4-(3-hydroxy-pyrrolidine-1-carbonyl)-cyclohexylamino]-pyrimidin-4-yl}-1H-indazol-4-yloxy)-propane-1-sulfonic acid amide] it is 178 to 179 °C; for `CS(=O)(=O)CCCOc1cccc2c1ccn2-c1ccnc(N[C@H]2CC[C@H](C(=O)N3CCC(NC4CC4)CC3)CC2)n1` [Compound 302, (4-cyclopropylamino-piperidin-1-yl)-(4-{4-[4-(3-methanesulfonyl-propoxy)-indol-1-yl]-pyrimidin-2-ylamino}-cyclohexyl)-methanone] it is 196.3 to 197.9 °C. The figure for `CC(C)(O)c1cccc2c1cnn2-c1ccnc(N[C@H]2CC[C@H](NS(C)(=O)=O)CC2)n1` [Compound 212, N-(4-{4-[4-(2-hydroxy-prop-2-yl)-indazol-1-yl]-pyrimidin-2-ylamino}-cyclohexyl)-methanesulfonamide] is 250 to 251 °C; for `CC(=O)N[C@H]1CC[C@H](Nc2nccc(-n3ncc4c(OCCCO)cccc43)n2)CC1` [Compound 152, N-(4-{4-[4-(3-hydroxy-propoxy)-indazol-1-yl]-pyrimidin-2ylamino}-cyclohexyl)-acetamide] it is 226 to 228 °C. In the case of `COc1cccc2c1c(C(N)=O)cn2-c1ccnc(N[C@H]2CC[C@H](C(=O)N3CCC(O)CC3)CC2)n1` [Compound 282, 1-{2-[4-(4-hydroxy-piperidine-1-carbonyl)-cyclohexylamino]-pyrimidin-4-yl}-4-methoxy-1H-indole-3-carboxylic acid amide] it was 278 to 280 °C. Compound `CCOC(=O)[C@H]1CC[C@H](Nc2nccc(-n3ccc4c(OCCCS(N)(=O)=O)cccc43)n2)CC1` [Compound 318, 4-{4-[4-(3-sulfamoyl-propoxy)-indol-1-yl]-pyrimidin-2-ylamino}-cyclohexanecarboxylic acid ethyl ester] returned a melting point of 145 to 148 °C. In the case of `CS(=O)(=O)N[C@H]1CC[C@H](Nc2nccc(-n3cc(C#N)c4ccccc43)n2)CC1` [Compound 247, N-{4-[4-(3-cyano-indol-1-yl)-pyrimidin-2-ylamino]-cyclohexyl}-methanesulfonamide] it was more than 300 °C.

One may read the melting point as the temperature, or range, at which the solid turns liquid.
